Reference: US20060134228A1, “Medicine for prevention of and treatment for amyloidosis” (Nipro Corporation, priority 2002, published 2006)

Target: T1, transthyretin purified from human serum (Homo sapiens, UniProt P02766)
T1 construct: Using transthyretin purified from human serum as a transthyretin-containing solution; from tissue; host or cells: human serum
Assay: Quantitative ratio of transthyretin tetramer and transthyretin monomer (gel separation chromatography, Coomassie stain)
Assay type: biochemical
Settings: metal chloride 80 μg/mL, transthyretin 0.2 mg/mL, incubated at 37° C.
Experimental: Using transthyretin purified from human serum as a transthyretin-containing solution, the purity thereof was confirmed by electrophoresis. The transthyretin-containing solution (10 mg/mL) was dissolved in a buffer solution to obtain a concentration of 0.2 mg/mL, and chromium chloride (80 μg/mL) was added. The pH of the buffer solution was adjusted to a pH necessary for each experiment using sodium hydroxide or hydrochloric acid. The above-described solution was incubated at 37° C. to produce amyloid fiber.
The transthyretin tetramer and the transthyretin monomer were separated by gel separation chromatography, immersed in the Coomassie Brilliant Blue stain, and examined for color developing intensity. Likewise, measurements were conducted for a comparative example wherein the metal compound added to the solution for incubation was changed from chromium chloride to aluminum chloride, and for a control not formulated with chromium chloride. Also, another test was conducted in the same manner, except that the metal compound added to the solution for incubation was replaced with 80 μg/mL chromium chloride and 80 μg/mL aluminum chloride (chromium chloride and aluminum chloride coexisted). Measurement results of fluorescence intensity and the quantitative ratio of the transthyretin tetramer and the transthyretin monomer are shown in FIG. 1.

SMILES: [Cl][Al]([Cl])[Cl] [aluminum ion, aluminum chloride]
- decomposition from the transthyretin tetramer to the transthyretin monomer: promote the reaction of decomposing the transthyretin tetramer to the monomer
- decomposition from the transthyretin tetramer to the transthyretin monomer (listed as aluminum): promote the decomposition

SMILES: [Cl][Cr]([Cl])[Cl] [trivalent chromium ion, chromium chloride]
- decomposition from the transthyretin tetramer to the transthyretin monomer: inhibit the reaction of decomposing the transthyretin tetramer to produce the monomer
